These results are taken from patent publication US20250059520A1, “SGK1 INHIBITORY COMPOSITIONS AND METHODS” (Arizona Board of Regents on Behalf of the University of …, priority 2021, published 2025).

The test system of data set [1] is isolated adult mouse ventricular myocytes (AMVMs). Kind of data set: Uptake, hypertrophic growth and ANP mRNA in AMVMs treated ± PE for 24 h. Conditions: AMVMs ± PE 24 h, several peptide doses. Format: cell-based. Here is the method:
FIGS. 12A to 12E show TAT-SGK1-(Pep) Stops Growth of Myocytes.
(§1) TAT-SGK1-(Pep) inhibits myocyte growth and fibroblast activation: Next, a SGK1-(Pep) peptide was designed and synthesized with an N-terminal TAT sequence to facilitate its direct delivery to cultured cells, and potentially to mice. To test its effectiveness, isolated adult mouse ventricular myocytes (AMVMs) were treated with either vehicle or a FITC-labeled form of the peptide, then imaged to show uptake (FIG. 12A). […] Thus, the TAT-SGK1-(Pep) affects AMVM growth as anticipated. […] Finally, since TGFβ-stimulated SGK1 has been implicated in fibrosis (Artunc F and Lang F. Nephron Physiol. 2014 128:35-9), a major maladaptive aspect of pressure overload cardiac pathology, the effects of the TAT-SGK1-(Pep) on TGFβ-mediated induction of two markers of fibrosis, α-smooth muscle actin (α-SMA) and periostin, was examined in adult mouse ventricular fibroblasts (AMVF). […] These findings underscore the SGK1-specificity of the peptide, as well as the possibility that some of the adaptive effects of the peptide could include dampening inflammasome activation and decreasing fibrosis.

In data set [2] the test system is endogenous SGK1. Nature of the data set: Rate of endogenous SGK1 degradation in AMVM. Format: cell-based, mouse.
Data set [3] relates to endogenous SGK1. Kind of data set: Rate of endogenous SGK1 degradation in NRVM. Format: cell-based, rat. Conditions: degradation dependent on Hrd1.
Data set [4] has as its system adult mouse ventricular fibroblasts (AMVF). Nature of the data set: TGFβ-mediated induction of fibrosis and inflammasome marker mRNAs in AMVF (qRT-PCR). Format: cell-based. Conditions: 48 h. The procedure: FIGS. 13A to 13C show effects of TAT-SGK1-(Pep) in AMVFs: TAT-SGK1-(Pep) [P] added to AMVFs at the conc shown±TGFβ. 48 h later cultures analyzed for α-SMA (FIG. 13A), periostin (FIG. 13B), IL1b (FIG. 13C) mRNAs shown by qRT-PCR. n=3 cultures/treatment*$ p<0.05 different from all other values (ANOVA).
as §1
(Quantitative PCR measures a nucleic acid by following its amplification.)

Data set [5] concerns TAC-induced heart failure with reduced ejection fraction. Kind of data set: Heart failure induced by transaortic constriction (TAC) in mice, echocardiography. In kind it is in vivo, mouse. The source says:
Animals were randomly assigned to cohorts and a five-digit identifier number.
FIGS. 18A to 18D show LV mass (FIG. 18A), ejection fraction (FIG. 18B), cardiac stiffening (E/e′) (FIG. 18C), and A wave (FIG. 18D) in mice treated with control peptide, SGK1 peptide, or delayed treatment of SGK1 peptide. The mice were 4-weeks into a 6-week heart failure paradigm induced by transaortic constriction (TAC), a gold standard preclinical model of heart failure with reduced ejection fraction. […] Consistent pressure gradients to confirm standardized severity of the TAC procedure across cohorts is performed 1-week post-TAC via carotid flow Doppler ratios of the inominate to left common carotids.

Another data set addresses T1, GILZ (Rattus norvegicus, UniProt Q9EQZ1).
T1 construct: FLAG IP efficiently pulled down the FLAG-SGK peptide (5, 6) as well as GILZ (7, 8); endogenous in cells; host or cells: NRVM (neonatal rat ventricular myocytes) infected with AdV-Con or AdV-FLAG-SGK1(122-157)
T1 sequence (Q9EQZ1 1-134): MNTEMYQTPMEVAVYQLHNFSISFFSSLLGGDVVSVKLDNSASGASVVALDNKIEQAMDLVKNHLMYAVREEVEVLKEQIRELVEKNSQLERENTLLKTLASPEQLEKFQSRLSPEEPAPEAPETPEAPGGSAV
Nature of the data set: FLAG immunoprecipitation of GILZ from NRVM infected with AdV-FLAG-SGK1(122-157). Format: binding. The source says:
(§2) FIGS. 11A to 11C show SGK1(122-157) Interrupts SGK1/GILZ Interaction and Decreases Cardiac Myocyte Growth. FIG. 11A illustrates how a small SGK1-related peptide could disrupt SGK1-GILZ interaction, increase SGK1 degradation and reduce cardiac myocyte growth. […] NRVM were infected with AdV-Con or FLAG-SGK-(122-157). […] FLAG IP efficiently pulled down the FLAG-SGK peptide (5, 6) as well as GILZ (7, 8).
(§3) Thus, it is anticipated that AAV9-FLAG-SGK1-(Pep) can increase SGK1 degradation and, thus, blunt pressure overload-induced pathological cardiac hypertrophy and subsequent heart failure in mice, in vivo.

Data set [6] relates to neonatal rat ventricular myocytes (NRVMs). Kind of data set: PE-mediated ANP expression, growth and SGK1 degradation in NRVM with ectopic expression of the SGK1 peptide. Format: cell-based. The conditions noted are these: NRVM ± AdV-SGK1 peptide.
Text: as §2
SGK1 and GILZ were shown herein to be increased in pathological hypertrophic human and mouse hearts. In mice, SGK1 degradation was slowed during pressure overload. Cardiac-specific deletion of SGK1 in mice decreased pressure overload-induced hypertrophy, whereas overexpression of SGK1 increased it. Removing the SGK1 ER-targeting sequence, or overexpressing GILZ decreased SGK1 degradation in neonatal rat ventricular myocytes (NRVMs) and increased growth; GILZ knockdown decreased growth. A 35 amino acid region in SGK1 that interacts with GILZ was identified; ectopic expression of this peptide increased SGK1 degradation and decreased NRVM growth.
as §3

The mark [7] stands for this setting: chronic administration, 4 weeks into 6-week TAC paradigm.

Ends that are not written are not given here.

In the case of “GRKKRRQRRRPQVFYAVKVLQKKAILKKKEEKHIMSERNVLLKNVKHP [TAT-SGK1-(Pep)]”, in data set [1], the “ANP mRNA” value is recorded as “dose-dependent decrease” and the “cardiac myocyte remodeling (hypertrophic growth, width to length ratio)” value was “dose-dependent decrease”. In the data set on endogenous SGK1 [2], the “endogenous SGK1 degradation” value was “accelerate endogenous SGK1 degradation”. Besides, the “endogenous SGK1 degradation” value in the data set with endogenous SGK1 [3] is reported as “accelerate endogenous SGK1 degradation”. Moreover, in data set [4], the “TGFβ-mediated induction of periostin mRNA” value is recorded as “effectively inhibited induction”; the “TGFβ-mediated induction of α-smooth muscle actin (α-SMA) mRNA” value is reported as “effectively inhibited induction”; the “mRNA for IL1β, marker of inflammasome activation” value is “inhibited”. Moreover, in data set [5] (setting [7]), the “TAC-induced left ventricular hypertrophy (LV Mass)” value was “conferring protection”; the “diastolic dysfunction and cardiac stiffening (E/e′)” value is on record as “conferring protection”; the “early indicator of congestion (mitral atrial flow velocity, A wave)” value is given as “conferring protection”; the “systolic dysfunction (ejection fraction)” value was “conferring protection”. The toxic effects result in data set [5] (setting [7]) is listed as “no signs of untoward toxic effects”. The “cardiac dysfunction and remodeling” value in data set [5] (delayed administration starting at 2-weeks post-TAC) is “shows signs of cardioprotection and reversal of early cardiac dysfunction and remodeling”.
With “VFYAVKVLQKKAILKKKEEKHIMSERNVLLKNVKHP (not fully specified) [SGK1-(Pep), FLAG-tagged amino acids 122-157 of SGK1, ectopically expressed from an adenovirus (AdV)]”, the “binding to GILZ in IP experiments” value with GILZ was “could bind to GILZ”. Further, in data set [6], the “PE-mediated ANP expression (ANP mRNA)” value is “blunted PE-mediated ANP expression”.
